The supplement of paper PMC11003180

Experiments:
Assay in all cases: drug sensitivity score (DSS) from 5-dose viability curve (DSS (area-based score, 0 = no response)); higher = more sensitive (stronger viability inhibition); extreme values may be limits of the assay
[1] = system: MDCK wild-type - doxycycline; conditions: doxycycline: none; 72 h
Procedure, shortened: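 Parental MDCK cells without doxycycline were dispensed at 2000 cells/well onto pre-spotted 384-well plates. The plates held an oncology library of 528 drugs at five doses (1-10,000 nM) and were incubated 72 h at 37 °C. Viability was read as CellTiter-Glo luminescence and scaled per plate between vehicle and positive controls. Drug sensitivity scores came from dose-response curve fits in the Breeze pipeline.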

[2] = system: MDCK p60AmotL2-inducible + doxycycline (p60AmotL2 expressing); conditions: doxycycline: 10 ng/mL; 72 h
Procedure, shortened: (§1)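 After 72 h at 37 °C on 384-well plates pre-spotted with 528 oncology drugs at five doses (1-10,000 nM), parental and doxycycline-inducible MDCK cells were assessed; both lines had been given 10 ng/mL doxycycline in the medium before seeding at 2000 cells/well. Viability was taken from CellTiter-Glo luminescence scaled per plate to vehicle and positive controls, and drug sensitivity scores were derived from dose-response fits in the Breeze pipeline.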

[3] = system: MDCK wild-type + doxycycline; conditions: doxycycline: 10 ng/mL; 72 h
Procedure, shortened: as §1

| Compound | drug sensitivity score [1] | drug sensitivity score [2] | drug sensitivity score [3] |
| --- | --- | --- | --- |
| CC(C)c1cc(-c2n[nH]c(=O)n2-c2ccc3c(ccn3C)c2)c(O)cc1O [Ganetespib] | 16.7 | 19.3 | 17.4 |
| CN(C)C1CCN(C(=O)c2ccc(NC(=O)Nc3ccc(-c4nc(N5CCOCC5)nc(N5CCOCC5)n4)cc3)cc2)CC1 [Gedatolisib] | 0 | 5.2 | 1.9 |
| COc1cc2ncnc(Nc3ccc(F)c(Cl)c3)c2cc1OCCCN1CCOCC1 [Gefitinib] | 3.2 | 17.9 | 1.5 |
| Nc1ccn([C@@H]2O[C@H](CO)[C@@H](O)C2(F)F)c(=O)n1 [Gemcitabine] | 2.2 | 7.7 | 5.5 |
| CCc1nc(C(N)=O)c(Nc2ccc(N3CCC(N4CCN(C)CC4)CC3)c(OC)c2)nc1NC1CCOCC1 [Gilteritinib] | 0.9 | 1 | 0.1 |
| CCN(CC)Cc1ccc2cc(COC(=O)Nc3ccc(C(=O)NO)cc3)ccc2c1 [Givinostat] | 4.8 | 7.1 | 4.5 |
| CN1CC[C@@H](NC(=O)Nc2ccc(C#N)cc2)C[C@@H]1c1nc2ccccc2[nH]1 [Glasdegib] | 0 | 0 | 0 |
| COCCNCc1ccc(-c2cc3nccc(Oc4ccc(NC(=S)NC(=O)Cc5ccc(F)cc5)cc4F)c3s2)nc1 [Glesatinib] | 0 | 0.4 | 0 |
| CN1CCN(C2CCN(C(=O)Nc3cc(Oc4ccc(NC(=O)C5(C(=O)Nc6ccc(F)cc6)CC5)c(F)c4)ccn3)CC2)CC1 [Golvatinib] | 0 | 1 | 0 |
| CC(C)C[C@H](NC(=O)[C@@H](COC(C)(C)C)NC(=O)[C@H](Cc1ccc(O)cc1)NC(=O)[C@H](CO)NC(=O)[C@H](Cc1c[nH]c2ccccc12)NC(=O)[C@H](Cc1cnc[nH]1)NC(=O)[C@@H]1CCC(=O)N1)C(=O)N[C@@H](CCCNC(=N)N)C(=O)N1CCC[C@H]1C(=O)NNC(N)=O [Goserelin] | 0 | 0 | 0 |
| O=S(=O)(c1cccc2c(O)nccc12)N1CCCNCC1 [Hydroxyfasudil] | 0 | 0 | 0 |
| NC(=O)NO [Hydroxyurea] | 2 | 0 | 0 |
| COc1cc2c(cc1-c1c(C)noc1C)ncc1[nH]c(=O)n([C@H](C)c3ccccn3)c12 [I-BET151] | 0.6 | 10.9 | 4.6 |
| O=C(O)c1ccc(O)c2ncccc12 [IOX-1] | 1.4 | 1.7 | 1.6 |
| O=C(O)CNC(=O)c1c(O)c2ccccc2n(Cc2ccccc2)c1=O [IOX-2] | 0 | 0 | 0 |
| C=CC(=O)N1CCC[C@@H](n2nc(-c3ccc(Oc4ccccc4)cc3)c3c(N)ncnc32)C1 [Ibrutinib] | 4.5 | 9.7 | 3.8 |
| C#Cc1cccc(Nc2ncnc3cc4c(cc23)OCCOCCOCCO4)c1 [Icotinib] | 0 | 7.8 | 2.4 |
| CC(=O)[C@]1(O)Cc2c(O)c3c(c(O)c2[C@@H](O[C@H]2C[C@H](N)[C@H](O)[C@H](C)O2)C1)C(=O)c1ccccc1C3=O [Idarubicin] | 16.6 | 19 | 13.9 |
| COc1cc(C(=O)O)ccc1NC(=O)[C@@H]1N[C@@H](CC(C)(C)C)[C@](C#N)(c2ccc(Cl)cc2F)[C@H]1c1cccc(Cl)c1F [Idasanutlin] | 8.4 | 16.2 | 12.6 |
| CC[C@H](Nc1ncnc2[nH]cnc12)c1nc2cccc(F)c2c(=O)n1-c1ccccc1 [Idelalisib] | 0 | 0.7 | 0 |
| Cc1ccc(NC(=O)c2ccc(CN3CCN(C)CC3)cc2)cc1Nc1nccc(-c2cccnc2)n1 [Imatinib] | 2.7 | 3.4 | 0 |
| CC(C)Cn1cnc2c(N)nc3ccccc3c21 [Imiquimod] | 0 | 0.3 | 0 |
| O=C(Nc1ccncc1)C(=O)c1cn(Cc2ccc(Cl)cc2)c2ccccc12 [Indibulin] | 7.2 | 10.7 | 0 |

| Compound | drug sensitivity score [1] | drug sensitivity score [2] | drug sensitivity score [3] |
| --- | --- | --- | --- |
| CCN1CCN(c2ccc(Nc3cc(N(C)C(=O)Nc4c(Cl)c(OC)cc(OC)c4Cl)ncn3)cc2)CC1 [Infigratinib] | 0 | 0 | 0 |
| CC(C)NC[C@@H](C(=O)N1CCN(c2ncnc3c2[C@H](C)C[C@H]3O)CC1)c1ccc(Cl)cc1 [Ipatasertib] | 0 | 2.2 | 0.1 |
| CCC(C)n1ncn(-c2ccc(N3CCN(c4ccc(OCC5COC(Cn6cncn6)(c6ccc(Cl)cc6Cl)O5)cc4)CC3)cc2)c1=O (stereo not given) [Itraconazole] | 7.9 | 10.7 | 7.7 |
| N#Cc1ccnc(N2C(=O)CC[C@H]2C(=O)N(c2cncc(F)c2)[C@H](C(=O)NC2CC(F)(F)C2)c2ccccc2Cl)c1 [Ivosidenib] | 0 | 0 | 0 |
| C/C(=C\c1csc(C)n1)[C@@H]1C[C@@H]2O[C@]2(C)CCC[C@H](C)[C@H](O)[C@@H](C)C(=O)C(C)(C)[C@@H](O)CC(=O)N1 [Ixabepilone] | 5.4 | 5 | 5 |
| CC(C)C[C@H](NC(=O)CNC(=O)c1cc(Cl)ccc1Cl)B(O)O [Ixazomib] | 9.6 | 9.7 | 9.4 |
| Nc1cc(COc2c(Cl)cc(C[C@H](N)C(=O)O)cc2Cl)c2oc(-c3ccccc3)nc2c1 [JPH203] | 0 | 0 | 0 |
| CC(C)NC(=O)COc1cccc(-c2nc(Nc3ccc4[nH]ncc4c3)c3ccccc3n2)c1 [KD025] | 0.8 | 0 | 0 |
| CS(=O)(=O)CCNCc1ccc(-c2ccc3ncnc(Nc4ccc(OCc5cccc(F)c5)c(Cl)c4)c3c2)o1 [Lapatinib] | 0.9 | 6.8 | 0 |
| O=C(Nc1cnn2ccc(N3CCC[C@@H]3c3cc(F)ccc3F)nc12)N1CC[C@H](O)C1 [Larotrectinib] | 0 | 0 | 0 |
| Oc1ccc2c(c1)CC[C@H](c1ccccc1)[C@@H]2c1ccc(OCCN2CCCC2)cc1 [Lasofoxifene] | 0 | 0 | 0 |
| Nc1cccc2c1CN(C1CCC(=O)NC1=O)C2=O (stereo not given) [Lenalidomide] | 0 | 0 | 0 |
| COc1cc2nccc(Oc3ccc(NC(=O)NC4CC4)c(Cl)c3)c2cc1C(N)=O [Lenvatinib] | 0 | 0 | 0 |
| N#Cc1ccc(C(c2ccc(C#N)cc2)n2cncn2)cc1 [Letrozole] | 0 | 0 | 0 |
| Cc1ccc(F)c(NC(=O)Nc2ccc(-c3cccc4[nH]nc(N)c34)cc2)c1 [Linifanib] | 0 | 0 | 0 |
| C[C@]1(O)C[C@@H](c2nc(-c3ccc4ccc(-c5ccccc5)nc4c3)c3c(N)nccn32)C1 [Linsitinib] | 0 | 0 | 0 |
| CCNCCS(=O)(=O)NC[C@@]1(c2ccccc2)SC(NC(=O)C(C)(C)C)=NN1C(=O)C(C)(C)C [Litronesib] | 22 | 26.6 | 25.1 |
| Nc1nc(OCc2cc(Br)cs2)c2[nH]cnc2n1 [Lomeguatrib] | 0 | 0 | 0 |
| NC(=O)N1CCC(CC(=O)N2CCC([C@H]3c4ncc(Br)cc4CCc4cc(Cl)cc(Br)c43)CC2)CC1 [Lonafarnib] | 8.6 | 14.6 | 9.9 |
| Cc1c(F)cc(C(=O)NC2CC2)cc1-c1ccc(C(=O)NCC(C)(C)C)cn1 [Losmapimod] | 0 | 0 | 0 |
| CC[C@H](C)C(=O)O[C@H]1C[C@@H](C)C=C2C=C[C@H](C)[C@H](CC[C@@H]3C[C@@H](O)CC(=O)O3)[C@H]21 [Lovastatin] | 0 | 0 | 0 |
| CNC(=O)c1cccc2cc(Oc3ccnc4cc(OCC5(N)CC5)c(OC)cc34)ccc12 [Lucitanib] | 0 | 2.6 | 0.7 |
